Measured values taken from patent US8946282B2, “Indolin-2-one derivatives as protein kinase inhibitors” (Annji Pharmaceutical Co., Ltd., priority 2012, dated 2015).

Columns and labels:
[1] = test system: HepG2 human hepatocellular carcinoma cells; assay: anti-proliferation, SRB colorimetric assay, HepG2; assay type: cell-based; conditions: concentration required for 50% growth inhibition, read-out: IC50 (μM, mean ± S.D.)
Text: HCT116 human colorectal carcinoma cells (Table 3), HepG2 human hepatocellular carcinoma cells (Table 4), and MV4-11 human acute myelomonocytic leukemia cells (Table 5).

FLT-3 = molecular target: T1, FLT-3 (Homo sapiens, UniProt P36888); assay: radioisotope-based P81 filter-binding assay, FLT-3 kinase; assay type: biochemical; conditions: for IC50: averaged from two independent dose-response curves, read-out: Enzyme assay IC50 FLT-3
T1 sequence (P36888 27-993): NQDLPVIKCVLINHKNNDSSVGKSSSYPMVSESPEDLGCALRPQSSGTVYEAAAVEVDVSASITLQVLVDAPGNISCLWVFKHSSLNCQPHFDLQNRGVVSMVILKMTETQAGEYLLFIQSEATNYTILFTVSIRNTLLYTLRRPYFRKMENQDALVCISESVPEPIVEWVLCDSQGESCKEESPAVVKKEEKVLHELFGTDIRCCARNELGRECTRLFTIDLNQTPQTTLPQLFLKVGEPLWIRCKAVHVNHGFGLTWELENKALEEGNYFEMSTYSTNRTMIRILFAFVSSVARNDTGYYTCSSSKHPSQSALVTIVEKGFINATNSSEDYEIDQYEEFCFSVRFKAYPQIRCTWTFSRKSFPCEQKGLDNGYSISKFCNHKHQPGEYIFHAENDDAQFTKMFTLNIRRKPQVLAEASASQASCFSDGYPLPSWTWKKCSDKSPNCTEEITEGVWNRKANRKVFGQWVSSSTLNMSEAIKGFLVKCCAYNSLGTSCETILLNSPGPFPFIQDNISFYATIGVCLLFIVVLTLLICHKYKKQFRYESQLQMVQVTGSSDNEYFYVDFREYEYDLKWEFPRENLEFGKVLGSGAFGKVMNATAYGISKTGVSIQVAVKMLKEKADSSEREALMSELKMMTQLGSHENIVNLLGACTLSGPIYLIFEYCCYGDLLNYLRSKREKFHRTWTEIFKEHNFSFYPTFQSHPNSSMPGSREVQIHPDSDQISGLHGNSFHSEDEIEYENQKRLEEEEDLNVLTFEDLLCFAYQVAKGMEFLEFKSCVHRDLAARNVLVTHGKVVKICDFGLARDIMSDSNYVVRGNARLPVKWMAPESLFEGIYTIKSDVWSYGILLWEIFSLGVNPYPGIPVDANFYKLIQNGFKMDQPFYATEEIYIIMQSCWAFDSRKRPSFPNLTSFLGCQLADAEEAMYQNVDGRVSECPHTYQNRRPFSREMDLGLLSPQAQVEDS
Experimental: (§1) Compounds of formula (I)-(IV) were evaluated for abilities in inhibiting protein kinases aurora B and FLT-3 activity using radioisotope-based P81 filter-binding assay (Table 1).

aurora B = aurora B (Homo sapiens, UniProt Q96GD4); assay: radioisotope-based P81 filter-binding assay, aurora B kinase; assay type: biochemical; conditions: for IC50: averaged from two independent dose-response curves, read-out: Enzyme assay IC50 Aur B; for inhibition at 1 µM: compound at 1.0 μM, mean values (n=2), read-out: percent inhibition of enzyme catalytic activity, Aur B (numbers in parentheses)
Chain of aurora B (Q96GD4 whole entry): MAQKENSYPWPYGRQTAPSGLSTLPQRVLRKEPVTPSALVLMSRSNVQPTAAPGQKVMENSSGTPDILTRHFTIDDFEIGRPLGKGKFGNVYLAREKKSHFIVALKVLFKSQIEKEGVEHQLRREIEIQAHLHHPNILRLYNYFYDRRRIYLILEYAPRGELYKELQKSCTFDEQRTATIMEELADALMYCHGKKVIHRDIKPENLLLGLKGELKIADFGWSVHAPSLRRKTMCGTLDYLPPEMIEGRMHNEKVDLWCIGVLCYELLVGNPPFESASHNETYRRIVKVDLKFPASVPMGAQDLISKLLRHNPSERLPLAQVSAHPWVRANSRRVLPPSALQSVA
Experimental: as §1

[2] = test system: A549 human lung carcinoma cells; assay: anti-proliferation, SRB colorimetric assay, A549; assay type: cell-based; conditions: concentration required for 50% growth inhibition, read-out: IC50 (μM, mean ± S.D.)
[3] = test system: MV4-11 human acute myelomonocytic leukemia cells; assay: anti-proliferation, SRB colorimetric assay, MV4-11; assay type: cell-based; conditions: concentration required for 50% growth inhibition
Experimental: (§2) HCT116 human colorectal carcinoma cells (Table 3), HepG2 human hepatocellular carcinoma cells (Table 4), and MV4-11 human acute myelomonocytic leukemia cells (Table 5). Cells were treated with the test compound and the concentration required for 50% growth inhibition (IC50) determined by sulfomodamine B (SRB) colorimetric assay.

[4] = test system: HCT116 human colorectal carcinoma cells; assay: anti-proliferation, SRB colorimetric assay, HCT116; assay type: cell-based; conditions: HCT-116, concentration required for 50% growth inhibition, read-out: IC50 (μM, mean ± S.D.)
Experimental: as §2

IC50 [1]	IC50 (FLT-3)	melting point	IC50 (aurora B)	IC50 [2]	IC50 [3]	IC50 [4]	inhibition at 1 µM (FLT-3; compound at 1.0 μM, mean values (n=2), read-out: percent inhibition of enzyme catalytic activity, FLT-3 (numbers in parentheses))	inhibition at 1 µM (aurora B)	SMILES
0.85 ± 0.11 µM	508 nM	264 to 269 °C (dec.)	3.7 nM	0.63 ± 0.08 µM	8.07 nM	–	–	–	Cc1[nH]c(/C=C2\C(=O)Nc3cc(NC(=O)NC(=O)c4ccccc4F)ccc32)c(C)c1C(=O)O [D53, (Z)-5-((6-(3-(2-fluorobenzoyl)ureido)-2-oxoindolin-3-ylidene)methyl)-2,4-dimethyl-1H-pyrrole-3-carboxylic acid]
0.63 ± 0.21 µM	265 nM	295 to 300 °C (dec.)	2.5 nM	0.77 ± 0.11 µM	7.21 nM	–	–	–	Cc1ccc(C(=O)NC(=O)Nc2ccc3c(c2)NC(=O)/C3=C\c2[nH]c(C)c(C(=O)O)c2C)cc1 [D39, (Z)-2,4-dimethyl-5-((6-(3-(4-methylbenzoyl)ureido)-2-oxoindolin-3-ylidene)-methyl)-1H-pyrrole-3-carboxylic acid]
0.73 ± 0.03 µM	100 nM	> 300 °C	348 nM	0.45 ± 0.08 µM	5.9 nM	0.65 ± 0.04 µM	–	–	O=C1Nc2cc(NC(=O)c3c[nH]cc(-c4ccc(C(F)(F)F)cc4)c3=O)ccc2/C1=C/c1ccc[nH]1 [D133]
0.9 ± 0.2 µM	8.6 nM	295 to 296 °C	791 nM	0.7 ± 0.2 µM	0.02 nM	–	–	–	O=C1Nc2cc(NC(=O)c3cccn(-c4ccc(F)cc4)c3=O)ccc2/C1=C/c1ccc[nH]1 [D107, (Z)—N-(3-((1H-pyrrol-2-yl)methylene)-2-oxoindolin-6-yl)-1-(4-fluorophenyl)-2-oxo-1,2-dihydropyridine-3-carboxamide]
0.47 ± 0.1 µM	12.4 nM	267 to 272 °C (dec.)	1.5 nM	0.11 ± 0.01 µM	–	0.97 ± 0.21 µM	–	–	Cc1[nH]c(/C=C2\C(=O)Nc3cc(NC(=O)NC(=O)c4ccccc4F)ccc32)c(C)c1CCC(=O)O [D54, (Z)-3-(5-((6-(3-(2-fluorobenzoyl)ureido)-2-oxoindolin-3-ylidene)methyl)-2,4-dimethyl-1H-pyrrol-3-yl)propanoic acid]
0.13 ± 0.06 µM	2.7 nM	280 to 285 °C (dec.)	2.1 nM	0.1 ± 0.01 µM	–	0.32 ± 0.07 µM	–	–	Cc1[nH]c(/C=C2\C(=O)Nc3cc(NC(=O)NC(=O)c4ccc(F)cc4F)ccc32)c(C)c1CCC(=O)O [D56, (Z)-3-(5-((6-(3-(2,4-difluorobenzoyl)ureido]-2-oxoindolin-3-ylidene)methyl)-2,4-dimethyl-1H-pyrrol-3-yl)propanoic acid]
0.84 ± 0.01 µM	–	253 to 258 °C (dec.)	–	0.99 ± 0.08 µM	–	–	6.9%	7.3%	COc1ccc(C(=O)NC(=O)Nc2cccc3c2NC(=O)/C3=C\c2ccc[nH]2)cc1 [D16, (Z)—N-(3-((1H-pyrrol-2-yl)methylene)-2-oxoindolin-7-ylcarbamoyl)-4-methoxybenzamide]
0.88 ± 0.13 µM	4.8 nM	250 °C	107 nM	0.66 ± 0.07 µM	0.34 nM	–	–	–	Cc1[nH]c(/C=C2\C(=O)Nc3cc(NC(=O)c4c[nH]cc(-c5ccc(F)cc5)c4=O)ccc32)c(C)c1CCC(=O)N1CCN(C)CC1 [D151, (Z)—N-(3-((3,5-dimethyl-4-(3-(4-methylpiperazin-1-yl)-3-oxopropyl)-1H-pyrrol-2-yl)methylene)-2-oxoindolin-6-yl)-5-(4-fluorophenyl)-4-oxo-1,4-dihydropyridine-3-carboxamide]
0.65 ± 0.11 µM	1.4 nM	283 °C (dec.)	70.5 nM	0.55 ± 0.05 µM	0.05 nM	–	–	–	Cc1[nH]c(/C=C2\C(=O)Nc3cc(NC(=O)c4c[nH]cc(-c5ccc(F)cc5)c4=O)ccc32)c(C)c1C(=O)N1CCN(C)CC1 [D149, (Z)—N-(3-((3,5-dimethyl-4-(4-methylpiperazine-1-carbonyl)-1H-pyrrol-2-yl)methylene)-2-oxoindolin-6-yl)-5-(4-fluorophenyl)-4-oxo-1,4-dihydropyridine-3-carboxamide]
0.6 µM	> 1000 nM	> 300 °C	123 nM	0.6 µM	–	0.6 µM	–	–	O=C1Nc2cc(NC(=O)c3c[nH]cc(-c4cc(F)cc(F)c4)c3=O)ccc2/C1=C/c1ccc[nH]1 [D136, (Z)—N-(3-((1H-pyrrol-2-yl)methylene)-2-oxoindolin-6-yl)-4-oxo-5-(3,5-difluorophenyl)-1,4-dihydropyridine-3-carboxamide]
0.7 ± 0.07 µM	10.3 nM	> 300 °C	91.6 nM	0.57 ± 0.04 µM	0.1 nM	–	–	–	Cc1[nH]c(/C=C2\C(=O)Nc3cc(NC(=O)c4c[nH]cc(-c5ccc(F)cc5)c4=O)ccc32)c(C)c1CC(=O)N1CCN(C)CC1 [D150, (Z)—N-(3-((3,5-dimethyl-4-(2-(4-methylpiperazin-1-yl)-2-oxoethyl)-1H-pyrrol-2-yl)methylene)-2-oxoindolin-6-yl)-5-(4-fluorophenyl)-4-oxo-1,4-dihydropyridine-3-carboxamide]
0.21 ± 0.02 µM	45.7 nM	> 300 °C	1.8 nM	0.08 ± 0.01 µM	–	0.45 ± 0.02 µM	–	–	Cc1[nH]c(/C=C2\C(=O)Nc3cc(NC(=O)NC(=O)c4ccc(F)cc4)ccc32)c(C)c1CCC(=O)O [D55, (Z)-3-(5-((6-(3-(4-fluorobenzoyl)ureido)-2-oxoindolin-3-ylidene)methyl)-2,4-dimethyl-1H-pyrrol-3-yl)propanoic acid]
0.74 ± 0.07 µM	16.2 nM	–	10.5 nM	0.47 ± 0.01 µM	–	0.87 ± 0.06 µM	–	–	COc1ccc(C(=O)NC(=O)Nc2ccc3c(c2)NC(=O)/C3=C\c2[nH]c(C)c(C(=O)NCCN(C)C)c2C)c(F)c1 [D68]
0.64 ± 0.01 µM	201 nM	285 to 290 °C (dec.)	–	0.73 ± 0.02 µM	0.07 nM	–	–	39.3%	COc1ccc(C(=O)NC(=O)Nc2ccc3c(c2)/C(=C/c2ccc[nH]2)C(=O)N3)cc1 [D14, (Z)—N-(3-((1H-pyrrol-2-yl)methylene)-2-oxoindolin-5-ylcarbamoyl)-4-methoxybenzamide]
0.82 ± 0.03 µM	59.9 nM	–	> 1000 nM	–	2.4 nM	0.85 ± 0.13 µM	–	–	O=C1Nc2cc(NC(=O)c3cccn(-c4ccc(Cl)c(Cl)c4)c3=O)ccc2/C1=C/c1ccc[nH]1 [D110, (Z)—N-(3-((1H-pyrrol-2-yl)methylene)-2-oxoindolin-6-yl)-1-(3,4-dichlorophenyl)-2-oxo-1,2-dihydropyridine-3-carboxamide]
0.68 ± 0.03 µM	0.5 nM	–	0.4 nM	0.56 ± 0.05 µM	–	0.85 ± 0.08 µM	–	–	COc1ccc(C(=O)NC(=O)Nc2ccc3c(c2)NC(=O)/C3=C\c2[nH]c(C)c(C(=O)NCCN3CCCC3)c2C)c(F)c1 [D70, (Z)-5-((6-(3-(2-fluoro-4-methoxybenzoyl)ureido)-2-oxoindolin-3-ylidene)methyl)-2,4-dimethyl-N-(2-(pyrrolidin-1-yl)ethyl)-1H-pyrrole-3-carboxamide]

SMILES	IC50 [1]	IC50 (FLT-3)	melting point	IC50 (aurora B)	IC50 [2]	IC50 [3]	IC50 [4]	inhibition at 1 µM (FLT-3; compound at 1.0 μM, mean values (n=2), read-out: percent inhibition of enzyme catalytic activity, FLT-3 (numbers in parentheses))	inhibition at 1 µM (aurora B)
CCN(CC)CCNC(=O)c1c(C)[nH]c(/C=C2\C(=O)Nc3cc(NC(=O)NC(=O)c4ccc(OC)cc4F)ccc32)c1C [D69, (Z)—N-(2-(diethylamino)ethyl)-5-((6-(3-(2-fluoro-4-methoxybenzoyl)ureido)-2-oxoindolin-3-ylidene)methyl)-2,4-dimethyl-1H-pyrrole-3-carboxamide]	0.88 ± 0.04 µM	4.4 nM	275 to 280 °C (dec.)	7.6 nM	0.46 ± 0.07 µM	–	0.91 ± 0.01 µM	–	–
